From PubChem BioAssay AID330 (DTP/NCI, 2004)
Values joined by “and” are separate entries in the source; they are usually repeats but may differ in a detail not shown here. Equal values may be shown once. Toxic doses and inconclusive results are not listed. Rule for the calls: active = survival T/C of 150% or more; inactive = T/C below 125% in these data.

System: P388 leukemia ip, CD2F1 mice, survival T/C
Test: NCI In Vivo Anticancer Drug Screen. Data for tumor model P388 Leukemia (intraperitoneal) in CD2F1 (CDF1) mice
Details: endpoint: median survival time, higher = longer survival
Outline: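 Mice carrying the transplanted tumor received test compound or vehicle. Survival was recorded in each group, and the value is the treated-group measurement divided by that of the vehicle-treated control group.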

[1] = dose: 50.0 mg/kg/injection, schedule: Q01DX005 (ip), vehicle: saline
[2] = dose: 100.0 mg/kg/injection, schedule: Q01DX005 (ip), vehicle: saline
[3] = dose: 200.0 mg/kg/injection, schedule: Q01DX005 (ip), vehicle: saline
[4] = dose: 12.5 mg/kg/injection, schedule: Q01DX005 (ip), vehicle: saline with Tween-80
[5] = dose: 25.0 mg/kg/injection, schedule: Q01DX005 (ip), vehicle: saline with Tween-80
[6] = dose: 100.0 mg/kg/injection, schedule: Q04DX003 (ip), vehicle: saline with Tween-80
[7] = dose: 200.0 mg/kg/injection, schedule: Q04DX003 (ip), vehicle: saline with Tween-80
[8] = dose: 100.0 mg/kg/injection, schedule: Q01DX009 (ip), vehicle: saline with Tween-80
[9] = dose: 200.0 mg/kg/injection, schedule: Q01DX009 (ip), vehicle: saline with Tween-80
[10] = dose: 400.0 mg/kg/injection, schedule: Q01DX009 (ip), vehicle: saline with Tween-80
[11] = dose: 50.0 mg/kg/injection, schedule: Q01DX005 (ip), vehicle: Klucel (hydroxypropylcellulose) (HPC)
[12] = dose: 100.0 mg/kg/injection, schedule: Q01DX005 (ip), vehicle: Klucel (hydroxypropylcellulose) (HPC)
[13] = dose: 50.0 mg/kg/injection, schedule: Q01DX009 (ip), vehicle: saline with Tween-80
[14] = dose: 50.0 mg/kg/injection, schedule: Q01DX009 (ip), vehicle: saline
[15] = dose: 100.0 mg/kg/injection, schedule: Q01DX009 (ip), vehicle: saline
[16] = dose: 200.0 mg/kg/injection, schedule: Q01DX009 (ip), vehicle: saline
[17] = dose: 25.0 mg/kg/injection, schedule: Q01DX009 (ip), vehicle: saline with Tween-80
[18] = dose: 60.0 mg/kg/injection, schedule: Q01DX005 (ip), vehicle: saline with Tween-80
[19] = dose: 120.0 mg/kg/injection, schedule: Q01DX005 (ip), vehicle: saline with Tween-80
[20] = dose: 240.0 mg/kg/injection, schedule: Q01DX005 (ip), vehicle: saline with Tween-80

Measured: T/C

CC(C)NC(=O)OCc1c(COC(=O)NC(C)C)c(-c2ccc(Cl)c(Cl)c2)n2c1CS(=O)C2 (stereo not drawn)
inactive: dose: 12.5 mg/kg/injection, schedule: Q01DX005 (ip), vehicle: Klucel + Tween-80 99 % of control | dose: 25.0 mg/kg/injection, schedule: Q01DX005 (ip), vehicle: Klucel + Tween-80 97 % of control | dose: 50.0 mg/kg/injection, schedule: Q01DX005 (ip), vehicle: Klucel + Tween-80 92 % of control | dose: 100.0 mg/kg/injection, schedule: Q01DX005 (ip), vehicle: Klucel + Tween-80 89 % of control | dose: 200.0 mg/kg/injection, schedule: Q01DX005 (ip), vehicle: Klucel + Tween-80 104 % of control and 89 % of control

CCN(CC)CCCN1CC(=O)N2CCCCN2C(=O)C1
inactive: [1] 102 % of control | [2] 100 % of control | [3] 100 % of control

N#CC=Cc1ccc([N+](=O)[O-])s1 (mixture of isomers)
inactive: [4] 109 % of control | [5] 115 % of control

COc1cc(C(C)=O)cc([N+](=O)[O-])c1O
inactive: dose: 50.0 mg/kg/injection, schedule: Q04DX003 (ip), vehicle: saline with Tween-80 100 % of control | [6] 100 % of control | [7] 100 % of control

c1ccc2c(c1)C1CCC2c2ccccc21
inactive: [8] 118 % of control | [9] 104 % of control | [10] 118 % of control

CC1=C(C)C(N(C)C)CS(=O)(=O)O1 (stereo not drawn)
inactive: [11] 99 % of control | [12] 104 % of control

COc1ccc(N=Nc2c(-c3cccs3)nn(C(N)=S)c2C(F)(F)F)cc1
inactive: [11] 97 % of control | [12] 95 % of control | dose: 200.0 mg/kg/injection, schedule: Q01DX005 (ip), vehicle: Klucel (hydroxypropylcellulose) (HPC) 97 % of control

N#Cc1ccc(Cl)cc1
inactive: [13] 101 % of control | [8] 89 % of control | [9] 93 % of control

NC(=O)NC1CCCCCC1
inactive: [6] 100 % of control | [7] 100 % of control | dose: 400.0 mg/kg/injection, schedule: Q04DX003 (ip), vehicle: saline with Tween-80 109 % of control

O=C(C/[N+]([O-])=C/c1ccccc1)OCc1ccccc1
inactive: dose: 12.5 mg/kg/injection, schedule: Q01DX009 (ip), vehicle: other 112 % of control | dose: 25.0 mg/kg/injection, schedule: Q01DX009 (ip), vehicle: other 112 % of control | dose: 50.0 mg/kg/injection, schedule: Q01DX009 (ip), vehicle: other 95 % of control | dose: 100.0 mg/kg/injection, schedule: Q01DX009 (ip), vehicle: other 88 % of control | dose: 200.0 mg/kg/injection, schedule: Q01DX009 (ip), vehicle: other 104 % of control

CNC(=O)Oc1cc(C)c[n+]([O-])c1
inactive: [1] 100 % of control | [2] 104 % of control | [3] 104 % of control

CN1C(=O)C23CCCN2C(=O)C1(C)SC(=O)S3 (stereo not drawn)
inactive: [14] 98 % of control | [15] 101 % of control | [16] 98 % of control

CSc1ncc(Br)c(Sc2nc(N)nc3nc[nH]c23)n1
inactive: dose: 12.5 mg/kg/injection, schedule: Q01DX009 (ip), vehicle: saline with Tween-80 95 % of control | [17] 86 % of control

C=C1CC2(CC(C)CCC2=C(C)C)OC1=O (stereo not drawn)
inactive: dose: 100.0 mg/kg/injection, schedule: Q01DX001 (ip), vehicle: saline 101 % of control | dose: 200.0 mg/kg/injection, schedule: Q01DX001 (ip), vehicle: saline 100 % of control | dose: 400.0 mg/kg/injection, schedule: Q01DX001 (ip), vehicle: saline 101 % of control

Cc1ccc(NC(=O)Oc2cc(C)c(Cl)cc2C)c([N+](=O)[O-])c1
inactive: [13] 95 % of control | [8] 87 % of control | [9] 91 % of control

Cc1nc(C#N)c(=N)n(CCCO)c1-c1ccccc1
inactive: [18] 109 % of control | [19] 101 % of control

O=S(=O)(CCNCCCCC1CCCCC1)SCCNCCCCC1CCCCC1
inactive: dose: 6.25 mg/kg/injection, schedule: Q01DX005 (ip), vehicle: Klucel (hydroxypropylcellulose) (HPC) 100 % of control | dose: 12.5 mg/kg/injection, schedule: Q01DX005 (ip), vehicle: Klucel (hydroxypropylcellulose) (HPC) 101 % of control | dose: 25.0 mg/kg/injection, schedule: Q01DX005 (ip), vehicle: Klucel (hydroxypropylcellulose) (HPC) 95 % of control

Cc1ccc(S(=O)(=O)OC[C@@H]2CCCC[C@H]2COS(=O)(=O)c2ccc(C)cc2)cc1
inactive: dose: 100.0 mg/kg/injection, schedule: Q01DX009 (ip), vehicle: Klucel (hydroxypropylcellulose) (HPC) 98 % of control | dose: 200.0 mg/kg/injection, schedule: Q01DX009 (ip), vehicle: Klucel (hydroxypropylcellulose) (HPC) 98 % of control | dose: 400.0 mg/kg/injection, schedule: Q01DX009 (ip), vehicle: Klucel (hydroxypropylcellulose) (HPC) 98 % of control

NCC1CC2(Cl)C(Cl)=C(Cl)C1(Cl)C2(Cl)Cl (stereo not drawn)
inactive: [4] 106 % of control | [5] 107 % of control | dose: 50.0 mg/kg/injection, schedule: Q01DX005 (ip), vehicle: saline with Tween-80 107 % of control and 111 % of control

CC(=O)Nc1ccc(-c2ccc(NC(C)=O)cc2)cc1
inactive: [14] 105 % of control | [15] 92 % of control | [16] 92 % of control

CCOC(=O)NCCF
inactive: dose: 0.78 mg/kg/injection, schedule: Q01DX009 (ip), vehicle: saline 96 % of control | dose: 1.56 mg/kg/injection, schedule: Q01DX009 (ip), vehicle: saline 101 % of control | dose: 3.12 mg/kg/injection, schedule: Q01DX009 (ip), vehicle: saline 101 % of control

[C-]#[N+]N=P(c1ccccc1)(c1ccccc1)c1ccccc1
inactive: dose: 60.0 mg/kg/injection, schedule: Q01DX005 (ip), vehicle: Klucel (hydroxypropylcellulose) (HPC) 107 % of control | dose: 120.0 mg/kg/injection, schedule: Q01DX005 (ip), vehicle: Klucel (hydroxypropylcellulose) (HPC) 114 % of control | dose: 240.0 mg/kg/injection, schedule: Q01DX005 (ip), vehicle: Klucel (hydroxypropylcellulose) (HPC) 122 % of control

O=C(O)c1nc2ccccc2c(=O)[nH]1
inactive: [17] 95 % of control | [13] 96 % of control | [8] 94 % of control | [9] 93 % of control

CC1CCN(SSc2nc3ccccc3s2)CC1
inactive: [13] 104 % of control and 116 % of control | [8] 107 % of control and 112 % of control | [9] 110 % of control and 118 % of control | [10] 114 % of control

O=C(NNC(=S)NC1OC(CO)C(O)C(O)C1O)c1cccc(C(=O)NNC(=S)NC2OC(CO)C(O)C(O)C2O)n1 (stereo not drawn)
inactive: [18] 97 % of control | dose: 60.0 mg/kg/injection, schedule: Q01DX005 (ip), vehicle: saline 106 % of control | [19] 100 % of control | dose: 120.0 mg/kg/injection, schedule: Q01DX005 (ip), vehicle: saline 106 % of control | [20] 96 % of control | dose: 240.0 mg/kg/injection, schedule: Q01DX005 (ip), vehicle: saline 101 % of control

O=C(Nc1cc(Cl)c(Cl)cc1Cl)N1CCOCC1
inactive: [18] 104 % of control | [19] 105 % of control | [20] 102 % of control
